Measured values as given in US7256190B2, “Thiazole compounds useful as inhibitors of protein kinase” (Vertex Pharmaceuticals Incorporated, priority 2001, dated 2007).

Columns and labels:
Assay type in all cases: biochemical
[1] = biological target: GSK3-β (AA 1-420) (Homo sapiens, UniProt P49841); test: GSK-3 inhibition assay (coupled enzyme system); details: 10 μM ATP, 300 μM peptide, 60 nM GSK-3β, 30° C.
Method: Compounds were screened for their ability to inhibit GSK3-β (AA 1-420) activity using a standard coupled enzyme system (Fox et al. (1998) Protein Sci. 7, 2249). Reactions were carried out in a solution containing 100 mM HEPES (pH 7.5), 10 mM MgCl2, 25 mM NaCl, 300 μM NADH, 1 mM DTT and 1.5% DMSO. Final substrate concentrations in the assay were 10 μM ATP (Sigma Chemicals, St Louis, Mo.) and 300 μM peptide (HSSPHQS(PO3H2)EDEEE, American Peptide, Sunnyvale, Calif.). Reactions were carried out at 30° C. and 60 nM GSK-3β. Final concentrations of the components of the coupled enzyme system were 2.5 mM phosphoenolpyruvate, 300μM NADH, 30 μg/ml pyruvate kinase and 10 μg/ml lactate dehydrogenase.
An assay stock buffer solution was prepared containing all of the reagents listed above with the exception of ATP and the test compound of interest. 59 μl of the test reaction was placed in a 96 well ½-diameter plate (Corning, Corning, N.Y.) then treated with 1 μl of a 2 mM DMSO stock containing the test compound (final compound concentration 30 μM). The plate was incubated for ˜10 minutes at 30° C. then the reaction initiated by addition of 7 μl of ATP (final concentration 10 μM). Rates of reaction were obtained using a Molecular Devices Spectramax plate reader (Sunnyvale, Calif.) over a 5 minute read time at 30° C.
(§1) The compound numbers correspond to the compound numbers in Table 1.

[2] = biological target: Syk (Homo sapiens, UniProt P43405); test: Syk inhibition assay (coupled enzyme assay); details: 200 μM ATP, 4 μM poly Gly-Tyr peptide, 30° C.
Method: Reactions were carried out in 100 mM HEPES pH 7.5, 10 mM MgCl2, 25 mM NaCl, 1 mM DTT and 1.5% DMSO. Final substrate .concentrations in the assay were 200 μM ATP (Sigmachemical Co.) and 4 μM poly Gly-Tyr peptide (Sigma Chemical Co.). Assays were carried out at 30° C. and 200 nM Syk. Final concentrations of the components of the coupled enzyme system were 2.5 mM phosphoenolpyruvate, 300 μM NADH, 30 μg/ml pyruvate kinase and 10 μg/ml lactate dehydrogenase.
An assay stock buffer solution was prepared containing all of the reagents listed above, with the exception of Syk, DTT and the test compound of interest. 56 μl of the test reaction was placed in a 96 well plate followed by the addition of 1 μl of 2 mM DMSO stock containing the test compound (final compound concentration 30 μM). […] Rates of reaction were obtained using a BioRad Ultramark plate reader (Hercules, Calif.) over a 5 minute read time at 30° C.
as §1

[3] = biological target: T1, Aurora2 (Homo sapiens, UniProt O14965); test: Aurora2 inhibition assay (coupled enzyme assay); details: 800 μM peptide LRRASLG, 70 nM Aurora2, 30° C.
T1 sequence (O14965 1-403): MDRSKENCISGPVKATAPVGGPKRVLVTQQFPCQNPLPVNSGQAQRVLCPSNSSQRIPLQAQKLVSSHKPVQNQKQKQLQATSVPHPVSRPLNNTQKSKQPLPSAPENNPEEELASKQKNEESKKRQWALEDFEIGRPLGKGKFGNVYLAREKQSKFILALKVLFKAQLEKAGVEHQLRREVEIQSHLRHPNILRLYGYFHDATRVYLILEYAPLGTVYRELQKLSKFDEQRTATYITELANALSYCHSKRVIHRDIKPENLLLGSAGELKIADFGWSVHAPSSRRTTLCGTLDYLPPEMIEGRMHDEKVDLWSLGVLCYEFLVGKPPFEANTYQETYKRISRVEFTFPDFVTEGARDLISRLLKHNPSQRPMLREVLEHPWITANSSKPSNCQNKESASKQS
Method: Compounds are screened in the following manner for their ability to inhibit Aurora2 using a standard coupled enzyme assay (Fox et al (1998). Protein Sci 7, 2246). To an assay stock buffer solution containing 0.1M HEPES 7.5, 10 mM MgCl2, 1 mM DTT, 25 mM NaCl, 2.5 mM prosphoenolpyruvate, […], […] pyruvate kinase, […] lactate dehydrogenase, […], and 800 μM peptide (LRRASLG, American Peptide, Sunnyvale, Calif.) is added a DMSO solution of a compound of the present invention to a final concentration of 30 μM. The resulting mixture is incubated at 30° C. for 10 minutes. The reaction was initiated by the addition of 10 μL of Aurora2 stock solution to give a final concentration of 70 nM in the assay. The rates of reaction are obtained by monitoring absorbance at 340 nm over a 5 minute read time at 30° C. using a BioRad Ultramark plate reader (Hercules, Calif.). The IC50 values are determined from the rate data as a function of inhibitor concentration.
as §1

Sequence of GSK3-β (AA 1-420) (P49841 whole entry, the tested form may be a part): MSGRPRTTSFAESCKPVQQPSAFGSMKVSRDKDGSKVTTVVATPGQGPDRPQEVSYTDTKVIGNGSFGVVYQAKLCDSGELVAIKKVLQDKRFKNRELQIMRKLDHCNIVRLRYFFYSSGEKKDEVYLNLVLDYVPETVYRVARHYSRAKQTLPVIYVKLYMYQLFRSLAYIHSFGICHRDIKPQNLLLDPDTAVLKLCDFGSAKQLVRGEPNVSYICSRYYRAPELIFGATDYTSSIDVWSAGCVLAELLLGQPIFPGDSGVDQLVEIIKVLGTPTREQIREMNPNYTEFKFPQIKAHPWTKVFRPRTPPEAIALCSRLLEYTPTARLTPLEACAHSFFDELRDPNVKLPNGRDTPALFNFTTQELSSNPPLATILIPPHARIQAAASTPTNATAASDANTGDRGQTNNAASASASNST

SMILES: Cc1ccccc1-c1cccc(Nc2nccc(-c3nccs3)n2)c1 [Compound I-3]
- Ki [1]: < 100 nM

SMILES: Fc1ccccc1-c1cccc(Nc2nccc(-c3nccs3)n2)c1 [Compound I-6]
- Ki [1]: < 100 nM

SMILES: c1ccc(COc2cccc(Nc3nccc(-c4nccs4)n3)c2)cc1 [Compound I-7, (3-Benzyloxy-phenyl)-(4-thiazol-2-yl-pyrimidin-2-yl)-amine]
- IC50 [2]: < 500 nM
- IC50 [3]: > 2000 nM

SMILES: c1ccc(Oc2ccc(-c3cccc(Nc4nccc(-c5nccs5)n4)c3)cc2)cc1 [Compound I-9]
- Ki [1]: < 100 nM

SMILES: c1ccc(COc2ccc(Nc3nccc(-c4nccs4)n3)cc2)cc1 [Compound I-10]
- IC50 [3]: > 2000 nM
- Ki [1]: > 1000 nM

SMILES: COc1ccc(-c2cccc(Nc3nccc(-c4nccs4)n3)c2)c(OC)c1OC [Compound I-12]
- Ki [1]: < 100 nM

SMILES: c1ccc(Oc2ccc(Nc3nccc(-c4nccs4)n3)cc2)cc1 [Compound I-13]
- IC50 [3]: > 2000 nM

SMILES: COc1cc(F)cc(-c2cccc(Nc3nccc(-c4nccs4)n3)c2)c1 [Compound I-15]
- Ki [1]: < 100 nM

SMILES: Fc1ccc(-c2cccc(Nc3nccc(-c4nccs4)n3)c2)c(F)c1 [Compound I-18]
- Ki [1]: < 100 nM

SMILES: c1ccc(COc2cccc(Nc3nccc(-c4nccs4)n3)c2)nc1 [Compound I-20]
- IC50 [3]: < 500 nM
- Ki [1]: < 100 nM

SMILES: Clc1ccc(Cl)c(-c2cccc(Nc3nccc(-c4nccs4)n3)c2)c1 [Compound I-21]
- Ki [1]: > 1000 nM

SMILES: Clc1cccc(-c2cccc(Nc3nccc(-c4nccs4)n3)c2)c1Cl [Compound I-24]
- Ki [1]: < 100 nM

SMILES: c1cncc(COc2cccc(N(Cc3cccnc3)c3nccc(-c4nccs4)n3)c2)c1 [Compound I-26]
- IC50 [3]: < 500 nM

SMILES: FC(F)(F)c1ccccc1-c1cccc(Nc2nccc(-c3nccs3)n2)c1 [Compound I-27]
- Ki [1]: < 100 nM

SMILES: Clc1cccc(Nc2nccc(-c3nccs3)n2)n1 [Compound I-28]
- IC50 [3]: > 2000 nM
- Ki [1]: < 100 nM

SMILES: FC(F)(F)c1cccc(-c2cccc(Nc3nccc(-c4nccs4)n3)c2)c1 [Compound I-30]
- Ki [1]: < 100 nM

SMILES: CCOc1ccc(-c2cccc(Nc3nccc(-c4nccs4)n3)c2)cc1 [Compound I-33]
- Ki [1]: < 100 nM

SMILES: CCOc1ccccc1-c1cccc(Nc2nccc(-c3nccs3)n2)c1 [Compound I-36]
- Ki [1]: 100 to 1000 nM

SMILES: Cc1ccc(C)c(-c2cccc(Nc3nccc(-c4nccs4)n3)c2)c1 [Compound I-39]
- Ki [1]: < 100 nM

SMILES: O=[N+]([O-])c1ccc(Nc2nccc(-c3nccs3)n2)cc1 [Compound I-40]
- IC50 [3]: > 2000 nM
- Ki [1]: < 100 nM

SMILES: Fc1ccccc1COc1cccc(Nc2nccc(-c3nccs3)n2)c1 [Compound I-41]
- IC50 [3]: > 2000 nM
- Ki [1]: < 100 nM

SMILES: CCOc1cccc(-c2cccc(Nc3nccc(-c4nccs4)n3)c2)c1 [Compound I-42]
- Ki [1]: < 100 nM

SMILES: COc1ccccc1COc1cccc(Nc2nccc(-c3nccs3)n2)c1 [Compound I-44]
- IC50 [2]: < 500 nM
- Ki [1]: < 100 nM

SMILES: CS(=O)(=O)c1ccc(-c2cccc(Nc3nccc(-c4nccs4)n3)c2)cc1 [Compound I-45]
- Ki [1]: < 100 nM

SMILES: FC(F)(F)c1ccccc1COc1cccc(Nc2nccc(-c3nccs3)n2)c1 [Compound I-47]
- IC50 [2]: > 2000 nM
- Ki [1]: < 100 nM

SMILES: N#Cc1ccc(-c2cccc(Nc3nccc(-c4nccs4)n3)c2)cc1 [Compound I-48]
- Ki [1]: < 100 nM

SMILES: c1cncc(Oc2cccc(Nc3nccc(-c4nccs4)n3)c2)c1 [Compound I-50]
- IC50 [2]: < 500 nM
- IC50 [3]: 500 to 2000 nM

SMILES: COc1cccc(OC)c1-c1cccc(Nc2nccc(-c3nccs3)n2)c1 [Compound I-51]
- Ki [1]: 100 to 1000 nM
